“Also recorded” adds a separate entry of the source. Read-outs that look alike come from different tables or passages of the source.
Assays:
[1] = Pharmacokinetics and tissue distribution (lung, plasma, heart, kidney) of co-solvent formulations, bolus intratracheal aerosol; assay type: in vivo, Sprague-Dawley rats; conditions: for concentration at 4 min / concentration at 0.1 h / concentration at 0.167 h / concentration at 0.333 h: Sprague-Dawley, rat, lung, other: intratracheal bolus aerosol (nebulizing catheter), 4 mg/kg, about 4 mg/kg pirfenidone IT bolus aerosol, read-out: Analyte in lung tissue, Mean; for concentration at 4 min: 0.0667 hr
Experimental: Selected formulations were prepared for pharmacokinetic analysis following aerosol delivery to rat lung. […] Formulations prepared for this study are outlined in Table 9. […] The sample was agitated until completely dissolved. […] Filtered samples were analyzed by HPLC.

[2] = tested on: proliferation of fibroblasts; LPS-stimulated release of PDGF, TNF-alpha and TGF-beta1; collagen synthesis; conditions: depending on the assay conditions; cited from earlier work
[3] = Stability assessment of pirfenidone formulations at 25° C./60RH and 40° C./75RH; assay type: physicochemical; conditions: for Measured Pirfenidone / mOsmol/kg / pH: time zero
Experimental: The sample was agitated until completely dissolved. Once dissolved, samples were filtered via syringe through a 0.22 μm PVDF filter.
Samples were refrigerated to reduce evaporative loss of volatile co-solvents (ethanol) during filtration and dispensing. An approximate 5.0-mL aliquot of each formulation was transferred to class A glass 6 ml containers with suitable closures (20 mm stopper). At least 8 containers are being maintained in the upright orientation at 25° C./60RH, and another 8 containers maintained at 40° C./75RH.

[4] = Aqueous formulation observations: solubility, salt addition, taste, dissolution time; assay type: physicochemical
Experimental: However, at this (and lower) concentration it was determined that salt addition was required to improve acute tolerability upon inhalation of a nebulized solution (otherwise a hypotonic solution). To address tonicity, NaCl or MgCl2 were added. […] This effect was not observed at ˜pH 8.

[5] = Extended-duration intratracheal and oral pharmacokinetic study; assay type: in vivo, Wistar rats
Experimental: Previous intratracheal aerosol delivery (see Example 6) was performed as a single bolus instillation just above the first bifurcation of the lung. For in vivo efficacy studies, an attempt was made to mimic tidal inhaled breathing by splitting the dose into equal parts and administering as before, but over a 2 minute period. […] Doses were prepared in 0.45% sodium chloride solution and were administered as described in Table 21.
Plasma samples and entire lungs were taken at pre-dose, 2, 4, 6, 10, 30, 60 and 120 minutes post dosing. Materials were extracted and pirfenidone quantitated as mcg/mL plasma and μg/gram lung tissue.

[6] = 25° C./60% RH, 5 mM phosphate buffer pH 6.5 plus 1% (v/v) EtOH, 2% (v/v) PG, target pirfenidone 1 mg/mL
[7] = 25° C./60% RH, 5 mM phosphate buffer pH 6.5 plus 1% (v/v) EtOH, 2% (v/v) PG, target pirfenidone 15 mg/mL
[8] = 25° C./60% RH, 5 mM phosphate buffer pH 6.5 plus 4% (v/v) EtOH, 8% (v/v) PG, target pirfenidone 23 mg/mL
[9] = 25° C./60% RH, 5 mM phosphate buffer pH 6.5 plus 6% (v/v) EtOH, 12% (v/v) PG, target pirfenidone 30 mg/mL
[10] = 25° C./60% RH, 5 mM phosphate buffer pH 6.5 plus 8% (v/v) EtOH, 16% (v/v) PG, target pirfenidone 1 mg/mL
[11] = 25° C./60% RH, 5 mM phosphate buffer pH 6.5 plus 8% (v/v) EtOH, 16% (v/v) PG, target pirfenidone 38 mg/mL
[12] = 40° C./75% RH, 5 mM phosphate buffer pH 6.5 plus 1% (v/v) EtOH, 2% (v/v) PG, target pirfenidone 1 mg/mL
[13] = 40° C./75% RH, 5 mM phosphate buffer pH 6.5 plus 1% (v/v) EtOH, 2% (v/v) PG, target pirfenidone 15 mg/mL
[14] = 40° C./75% RH, 5 mM phosphate buffer pH 6.5 plus 4% (v/v) EtOH, 8% (v/v) PG, target pirfenidone 23 mg/mL
[15] = 40° C./75% RH, 5 mM phosphate buffer pH 6.5 plus 6% (v/v) EtOH, 12% (v/v) PG, target pirfenidone 30 mg/mL
[16] = 40° C./75% RH, 5 mM phosphate buffer pH 6.5 plus 8% (v/v) EtOH, 16% (v/v) PG, target pirfenidone 1 mg/mL
[17] = 40° C./75% RH, 5 mM phosphate buffer pH 6.5 plus 8% (v/v) EtOH, 16% (v/v) PG, target pirfenidone 38 mg/mL
[18] = 5 mM phosphate buffer pH 6.5 plus 1% (v/v) EtOH, 2% (v/v) PG, target pirfenidone 1 mg/mL
[19] = 5 mM phosphate buffer pH 6.5 plus 1% (v/v) EtOH, 2% (v/v) PG, target pirfenidone 15 mg/mL
[20] = 5 mM phosphate buffer pH 6.5 plus 4% (v/v) EtOH, 8% (v/v) PG, target pirfenidone 23 mg/mL
[21] = 5 mM phosphate buffer pH 6.5 plus 6% (v/v) EtOH, 12% (v/v) PG, target pirfenidone 30 mg/mL
[22] = 5 mM phosphate buffer pH 6.5 plus 8% (v/v) EtOH, 16% (v/v) PG, target pirfenidone 1 mg/mL
[23] = 5 mM phosphate buffer pH 6.5 plus 8% (v/v) EtOH, 16% (v/v) PG, target pirfenidone 38 mg/mL
[24] = intratracheal aerosol 2.5 mg/kg, extended-duration (2 minutes)
[25] = intratracheal aerosol 5 mg/kg, extended-duration (2 minutes)
[26] = intratracheal aerosol 10 mg/kg, extended-duration (2 minutes)

Cc1ccc(=O)n(-c2ccccc2)c1 [pirfenidone, 5-methyl-1-phenyl-2-(1H)-pyridone]
concentration at 4 min ([1]; Group 1): 10400 ng/g
concentration at 0.1 h ([1]; Group 1): 7530 ng/g
concentration at 0.167 h ([1]; Group 1): 5360 ng/g
concentration at 0.333 h ([1]; Group 1): 4150 ng/g
concentration at 4 min ([1]; Group 2): 8530 ng/g
concentration at 0.1 h ([1]; Group 2): 5980 ng/g
concentration at 0.167 h ([1]; Group 2): 5710 ng/g
concentration at 0.333 h ([1]; Group 2): 3790 ng/g
concentration at 4 min ([1]; Group 3): 17300 ng/g
concentration at 0.1 h ([1]; Group 3): 7340 ng/g
concentration at 0.167 h ([1]; Group 3): 6160 ng/g
concentration at 4 min ([1]; Group 4): 7770 ng/g
concentration at 0.1 h ([1]; Group 4): 7500 ng/g
concentration at 0.167 h ([1]; Group 4): 5230 ng/g
concentration at 4 min ([1]; Group 5): 10700 ng/g
concentration at 0.1 h ([1]; Group 5): 5830 ng/g
concentration at 0.167 h ([1]; Group 5): 8780 ng/g
concentration at 4 min ([1]; Group 6): 7930 ng/g
concentration at 0.1 h ([1]; Group 6): 6830 ng/g
concentration at 0.167 h ([1]; Group 6): 5170 ng/g
adverse events ([1]; about 4 mg/kg intratracheal aerosol, co-solvent formulations): No adverse events were noted
lower end of concentrations at which in vitro activities were evident [2]: about 30 microM; also recorded: about 5.5 mcg/mL
upper end of concentrations at which in vitro activities were evident [2]: about 10 mM; also recorded: about 1.85 mg/mL
Pirfenidone (mg/mL) at Time = 0 [3, 6]: 1.0 mg/mL
Pirfenidone (mg/mL) at Time = 1 month [3, 6]: 1.0 mg/mL
Pirfenidone (mg/mL) at Time = 3 month [3, 6]: 1.0 mg/mL
Pirfenidone (mg/mL) at Time = 6 month [3, 6]: 1.0 mg/mL
Pirfenidone (mg/mL) at Time = 0 [3, 7]: 16.1 mg/mL
Pirfenidone (mg/mL) at Time = 1 month [3, 7]: 15.1 mg/mL
Pirfenidone (mg/mL) at Time = 3 month [3, 7]: 14.9 mg/mL
Pirfenidone (mg/mL) at Time = 6 month [3, 7]: 15.4 mg/mL
Pirfenidone (mg/mL) at Time = 0 [3, 8]: 24.1 mg/mL
Pirfenidone (mg/mL) at Time = 1 month [3, 8]: 22.1 mg/mL
Pirfenidone (mg/mL) at Time = 3 month [3, 8]: 22.3 mg/mL
Pirfenidone (mg/mL) at Time = 6 month [3, 8]: 23.2 mg/mL
Pirfenidone (mg/mL) at Time = 0 [3, 9]: 30.3 mg/mL
Pirfenidone (mg/mL) at Time = 1 month [3, 9]: 30.1 mg/mL
Pirfenidone (mg/mL) at Time = 3 month [3, 9]: 29.6 mg/mL
Pirfenidone (mg/mL) at Time = 6 month [3, 9]: 31.0 mg/mL
Pirfenidone (mg/mL) at Time = 0 [3, 10]: 1.0 mg/mL
Pirfenidone (mg/mL) at Time = 1 month [3, 10]: 1.0 mg/mL
Pirfenidone (mg/mL) at Time = 3 month [3, 10]: 1.0 mg/mL
Pirfenidone (mg/mL) at Time = 6 month [3, 10]: 1.0 mg/mL
Pirfenidone (mg/mL) at Time = 0 [3, 11]: 38.9 mg/mL
Pirfenidone (mg/mL) at Time = 1 month [3, 11]: 38.3 mg/mL
Pirfenidone (mg/mL) at Time = 3 month [3, 11]: 38.0 mg/mL
Pirfenidone (mg/mL) at Time = 6 month [3, 11]: 39.2 mg/mL
Pirfenidone (mg/mL) at Time = 0 [3, 12]: 1.0 mg/mL
Pirfenidone (mg/mL) at Time = 1 month [3, 12]: 1.0 mg/mL
Pirfenidone (mg/mL) at Time = 3 month [3, 12]: 1.0 mg/mL
Pirfenidone (mg/mL) at Time = 6 month [3, 12]: 1.0 mg/mL
Pirfenidone (mg/mL) at Time = 0 [3, 13]: 16.1 mg/mL
Pirfenidone (mg/mL) at Time = 1 month [3, 13]: 15.1 mg/mL
Pirfenidone (mg/mL) at Time = 3 month [3, 13]: 14.8 mg/mL
Pirfenidone (mg/mL) at Time = 6 month [3, 13]: 15.5 mg/mL
Pirfenidone (mg/mL) at Time = 0 [3, 14]: 24.1 mg/mL
Pirfenidone (mg/mL) at Time = 1 month [3, 14]: 22.4 mg/mL
Pirfenidone (mg/mL) at Time = 3 month [3, 14]: 22.1 mg/mL
Pirfenidone (mg/mL) at Time = 6 month [3, 14]: 23.3 mg/mL
Pirfenidone (mg/mL) at Time = 0 [3, 15]: 30.3 mg/mL
Pirfenidone (mg/mL) at Time = 1 month [3, 15]: 30.3 mg/mL
Pirfenidone (mg/mL) at Time = 3 month [3, 15]: 30.0 mg/mL
Pirfenidone (mg/mL) at Time = 6 month [3, 15]: 31.1 mg/mL
Pirfenidone (mg/mL) at Time = 0 [3, 16]: 1.0 mg/mL
Pirfenidone (mg/mL) at Time = 1 month [3, 16]: 1.0 mg/mL
Pirfenidone (mg/mL) at Time = 3 month [3, 16]: 1.0 mg/mL
Pirfenidone (mg/mL) at Time = 6 month [3, 16]: 1.0 mg/mL
Pirfenidone (mg/mL) at Time = 0 [3, 17]: 38.9 mg/mL
Pirfenidone (mg/mL) at Time = 1 month [3, 17]: 38.4 mg/mL
Pirfenidone (mg/mL) at Time = 3 month [3, 17]: 38.0 mg/mL
Pirfenidone (mg/mL) at Time = 6 month [3, 17]: 37.9 mg/mL
Measured Pirfenidone [3, 18]: 1.0 mg/mL
mOsmol/kg [3, 18]: 452 mOsmol/kg
pH [3, 18]: 6.69
Measured Pirfenidone [3, 19]: 16.1 mg/mL
mOsmol/kg [3, 19]: 512 mOsmol/kg
pH [3, 19]: 6.65
Measured Pirfenidone [3, 20]: 24.1 mg/mL
pH [3, 20]: 6.78
Measured Pirfenidone [3, 21]: 30.3 mg/mL
mOsmol/kg [3, 21]: 2863 mOsmol/kg
pH [3, 21]: 6.90
Measured Pirfenidone [3, 22]: 1.0 mg/mL
mOsmol/kg [3, 22]: 3590 mOsmol/kg
pH [3, 22]: 6.98
Measured Pirfenidone [3, 23]: 38.9 mg/mL
mOsmol/kg [3, 23]: 3750 mOsmol/kg
pH [3, 23]: 7.04
formulation stability on addition of MgCl2 ([4]; MgCl2 added, 1:1 and 1:2 mole ratios magnesium to pirfenidone): maintained a stable, soluble solution
formulation stability on addition of NaCl ([4]; NaCl added to address tonicity, ambient storage): destabilized the formulation and resulted in precipitation upon ambient storage
acute tolerability upon inhalation of a nebulized solution ([4]; addition of NaCl): improved acute tolerability
solubility ([4]; aqueous solution, aqueous buffer, across a pH range of about 4.0 to about 8.0): 17 mg/mL
adverse events ([5]; extended-duration intratracheal aerosol or oral gavage): No adverse events were noted
Lung Tissue AUC(0-2 hr) [5, 24]: 3.5 µg·h/g
Lung Tissue Cmax [5, 24]: 14.4 μg/gram
Lung Tissue AUC(0-2 hr) [5, 25]: 6.6 µg·h/g
Lung Tissue Cmax [5, 25]: 27.9 μg/gram
Lung Tissue AUC(0-2 hr) [5, 26]: 14.5 µg·h/g
Lung Tissue Cmax [5, 26]: 61.1 μg/gram
Lung Tissue AUC(0-2 hr) ([5]; oral gavage 10 mg/kg): 4.9 µg·h/g
Lung Tissue Cmax ([5]; oral gavage 10 mg/kg): 3.5 μg/gram
Lung Tissue AUC(0-2 hr) ([5]; oral gavage 30 mg/kg): 13.5 µg·h/g
Lung Tissue Cmax ([5]; oral gavage 30 mg/kg): 9.8 μg/gram
Lung Tissue AUC(0-2 hr) ([5]; oral gavage 100 mg/kg): 27.9 µg·h/g
Lung Tissue Cmax ([5]; oral gavage 100 mg/kg): 33.6 μg/gram
